pIC50: −log10 of the molar value.
Tests used:
A549 = test: Cell viability assay (resazurin), A549; assay type: cell-based; conditions: Homo sapiens, 72-144 hr
Method: (§1) Different cell lines such as pancreatic, (MIA PaCa-2; ATCC®CRL-1420™ & and Panc-1; CRL-1469™), liver carcinoma (HepG2; ATCC® HB-8065™), lung epithelial carcinoma (A549; ATCC® CCL-185™) and others were seeded in their respective medium (DMEM, Cat #10569044, MEM, Cat #41090036; RPMI, Cat #22400089; all with 10% FBS, Gibco, ThermoFisher) at a cell count of 3000 cells per 100 μl per well in a 96 well edge plate (167425; ThermoFisher). Cells were allowed to grow at 37° C. for 24 hr in 5% CO2 (culture conditions) in a Nuaire incubator (humidified). Serially diluted compounds (100 μl) were added to the culture plate 24 hr later and the cultures were further incubated in culture conditions for specified time depending on doubling time of specific cell line (ranging from 72-144 hr). Experiment was terminated at the completion of incubation time with the drug by replacing the medium with 100 μl of 1 mM of resazurin (R7017; Sigma) prepared in respective culture medium and the plates were further incubated in culture conditions for 4 hr. Fluorescence was then measured using a multimodal plate reader (Biotek Synergy Neo) at an excitation wavelength of 535 nm and emission wavelength of 590 nm to obtain relative fluorescence units. Data analysis was done by subtracting the background fluorescence (only medium blank) value from each reading and then normalizing with the vehicle control (DMSO treated cells) to obtain percent survival/proliferation. Percent survival at different doses was used to calculate IC50 by fitting the curve to the “four-parameter variable slope logistic model” using Prism Graph Pad.

[1] = tested on: phosphorylation of Smad-2 in THP-1 cells; test: Inhibition of phosphorylation of Smad-2 in THP-1 cells (Phospho-Smad2 ELISA); assay type: cell-based; conditions: 1.5 h, human TGF-β 20 ng/ml, 90 min, read-out: pSmad2 IC50
Method: IC50 values of compounds for determining inhibition of phosphorylation of Smad-2 in THP-1 cells (ATCC, Cat # ATCC® TIB-202™) cultured in RPMI medium, (Cat #22400089; with 10% FBS, Gibco, ThermoFisher). THP-1 cells (1.0×10^6 cells/well; 6 well plate) were incubated with serial dilutions of compounds (3 fold, 5 point dose response starting at 10 μM) for 60 min at 37° C., 5% CO2 in an incubator (cell culture conditions) prior to treating them with Recombinant Human TGF-β (20 ng/ml soluble; Cat #100-21, Peprotech) for 90 min. The cells were then pelleted and processed for protein estimation and evaluation of pSmad using ELISA kit from Cell Signaling (PathScan(R) Phospho-Smad2 (Ser465/467) Sandwich ELISA; Cat #7348C) as per manufacturer's protocol. Data analysis was done by subtracting the background absorbance (only negative control) value from each reading and then normalizing with the vehicle control (DMSO treated cells) to obtain percent levels of pSmad-2. Percent inhibition thus obtained (by subtracting expression levels of pSmad from 100) at different doses was used to calculate IC50 by fitting the curve to the “four-parameter variable slope logistic model” using Prism Graph Pad.

22Rv1 = test: Cell viability assay (resazurin), 22Rv1; assay type: cell-based; conditions: Homo sapiens, 72-144 hr
Method: as §1

MCF7 = test: Cell viability assay (resazurin), MCF7; assay type: cell-based; conditions: Homo sapiens, 72-144 hr
Method: as §1

AsPC-1 = test: Cell viability assay (resazurin), AsPC-1; assay type: cell-based; conditions: Homo sapiens, ASPC1, 72-144 hr
Method: as §1

MV-4-11 = test: Cell viability assay (resazurin), MV-4-11; assay type: cell-based; conditions: Homo sapiens, MV4-11, 72-144 hr
Method: as §1

ALK 5 = target: T1, ALK 5 (Homo sapiens, UniProt P36897); test: In vitro kinase assay (ALK5 IC50, LanthaScreen Terbium labeled TR-FRET); assay type: biochemical; conditions: TGF-β kinase 6 nM, ATP 10 μM, read-out: Enzyme Activity ALK 5 IC50
T1 sequence (P36897 34-503): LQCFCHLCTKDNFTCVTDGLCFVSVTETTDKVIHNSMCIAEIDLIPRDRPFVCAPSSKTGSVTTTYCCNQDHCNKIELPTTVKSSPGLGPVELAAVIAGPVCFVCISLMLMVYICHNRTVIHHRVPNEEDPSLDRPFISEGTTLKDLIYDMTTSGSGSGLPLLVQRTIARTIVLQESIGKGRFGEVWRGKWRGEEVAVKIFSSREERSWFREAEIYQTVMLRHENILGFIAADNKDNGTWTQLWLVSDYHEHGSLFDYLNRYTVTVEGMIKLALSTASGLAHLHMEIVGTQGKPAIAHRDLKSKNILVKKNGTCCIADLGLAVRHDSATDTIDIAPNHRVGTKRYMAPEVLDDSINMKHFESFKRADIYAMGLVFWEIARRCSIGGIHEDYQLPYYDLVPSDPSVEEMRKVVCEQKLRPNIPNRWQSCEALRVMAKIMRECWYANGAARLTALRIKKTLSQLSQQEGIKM
Outline: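 LanthaScreen Tb TR-FRET: ALK5 (6 nM) preincubated 10 min with 3-fold diluted compounds, then 10 μM ATP and 200 nM fluorescent PolyGT substrate added for 1 h at room temperature. Stopped with EDTA/Tb antibody; 520/495 nm emission read. IC50 from four-parameter fit versus DMSO and no-enzyme controls.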

HepG2 = test: Cell viability assay (resazurin), HepG2; assay type: cell-based; conditions: Homo sapiens, 72-144 hr
Method: as §1

| SMILES | pIC50 (A549) | pIC50 [1] | pIC50 (22Rv1) | pIC50 (MCF7) | pIC50 (AsPC-1) | pIC50 (MV-4-11) | pIC50 (ALK 5) | pIC50 (HepG2) |
| --- | --- | --- | --- | --- | --- | --- | --- | --- |
| CC(=O)Nc1cc(Nc2cc(-c3cc(Cl)ccc3F)c(=O)[nH]c2C(C)C)ccn1 [Compound 1.48, N-(4-((5-(5-chloro-2-fluorophenyl)-2-isopropyl-6-oxo-1,6-dihydropyridin-3-yl)amino)pyridin-2-yl)acetamide] | < 4.52 | 6.91 | < 4.52 | < 5.00 | < 4.52 | 4.70 | ≥ 6.30 | < 4.52 |
| CC(C)c1[nH]c(=O)c(-c2cc(Cl)ccc2F)cc1Nc1ccnc2[nH]ccc12 [Compound 1.50, 5-((1H-pyrrolo[2,3-b]pyridin-4-yl)amino)-3-(5-chloro-2-fluorophenyl)-6-isopropylpyridin-2(1H)-one] | < 4.52 | 6.27 |  | < 5.00 |  | 6.15 | ≥ 6.30 | < 4.52 |

From patent US20200247812A1 (Integral Biosciences Private Limited, priority 2018, published 2020)
